Results from patent US20020137929A1, “1 - (3-heterocyclylphenyl) isothiourea, -isourea, -guanidine and -amidine herbicidal agents” (Intellectual Property Department, BASF Aktiengesellschaft, priority 1998, published 2002).

Key:
AMBEL (Ragweed, Common) = assay: Postemergence herbicidal evaluation; type: in vivo, Ambrosia artemisifolia; conditions: postemergence
Method in brief: (§1)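 First, seedlings were raised for around two weeks. Next, test material in 50/50 acetone/water containing 0.5% TWEEN 20 was sprayed through a nozzle at 40 psi, equivalent to about 0.0156–0.500 kg/ha. Finally, after 4–5 weeks in the greenhouse, plants were rated 0–9.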

ZEAMX (Corn, Field) = assay: Postemergence herbicidal evaluation; type: in vivo, Zea mays; conditions: postemergence
Method in brief: as §1

[1] = system: IPOHE (Morningglory, Ivyleaf); assay: Postemergence herbicidal evaluation; type: in vivo, Ipomoea hederacea; conditions: postemergence
Method in brief: as §1

[2] = system: GLXMAW (Soybean, Williams); assay: Postemergence herbicidal evaluation; type: in vivo, Glycine max, (L.) Merr. cv Williams; conditions: postemergence
Method in brief: as §1

[3] = system: CHEAL (Lambsquarters, Common); assay: Preemergence herbicidal evaluation; type: in vivo, Chenopodium album; conditions: rated 4-5 weeks after treatment
Method in brief: (§2)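 Visual 0-9 rating vs control (stand, vigor, malformation, size, chlorosis, overall appearance), scored 4-5 wk after spraying. Seeded soil cups were treated preemergence with compound in aqueous acetone, ~0.0156-0.500 kg/ha equivalent.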

[4] = system: CHEAL (Lambsquarters, Common); assay: Postemergence herbicidal evaluation; type: in vivo, Chenopodium album; conditions: postemergence
Method in brief: as §1

SETVI (Foxtail, Green) [5] = assay: Preemergence herbicidal evaluation; type: in vivo, Setaria viridis; conditions: rated 4-5 weeks after treatment
Method in brief: as §2

ECHCG (Barnyardgrass) = assay: Preemergence herbicidal evaluation; type: in vivo, Echinochloa crus-galli; conditions: rated 4-5 weeks after treatment
Method in brief: as §2

GALAP (Galium) [6] = assay: Preemergence herbicidal evaluation; type: in vivo, Galium aparine; conditions: rated 4-5 weeks after treatment
Method in brief: as §2

[7] = system: GLXMAW (Soybean, Williams); assay: Preemergence herbicidal evaluation; type: in vivo, Glycine max, (L.) Merr. cv Williams; conditions: rated 4-5 weeks after treatment
Method in brief: as §2

GALAP (Galium) [8] = assay: Postemergence herbicidal evaluation; type: in vivo, Galium aparine; conditions: postemergence
Method in brief: as §1

SETVI (Foxtail, Green) [9] = assay: Postemergence herbicidal evaluation; type: in vivo, Setaria viridis; conditions: postemergence
Method in brief: as §1

ABUTH (Velvetleaf) = assay: Postemergence herbicidal evaluation; type: in vivo, Abutilon theophrasti; conditions: postemergence
Method in brief: as §1

[10] = system: SAGPY (Arrowhead (Pygmaea)); assay: Preemergence weed control under flooded paddy conditions; type: in vivo, Sagittaria pygmaea; conditions: rated 3-4 weeks after treatment
Method in brief: (§3)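 Visual injury scored 0-9 against control three to four weeks post-treatment, greenhouse-grown. Application: acetone/water (50/50) solutions dosed directly into flood water (1.5-3 cm over silt loam, planted top 0.5 cm), roughly 0.0313 to 0.500 kg/ha active ingredient.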

CYPSE (Flatsedge) = assay: as above; type: in vivo, Cyperus serotinus; conditions: rated 3-4 weeks after treatment
Method in brief: as §3

[11] = system: IPOHE (Morningglory, Ivyleaf); assay: Preemergence herbicidal evaluation; type: in vivo, Ipomoea hederacea; conditions: rated 4-5 weeks after treatment
Method in brief: as §2

CYPIR (Rice Flatsedge) = assay: Preemergence weed control under flooded paddy conditions; type: in vivo, Cyperus iria; conditions: rated 3-4 weeks after treatment
Method in brief: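 First, seeds or propagules go into the top 0.5 cm of silt loam; next, water is held 1.5 to 3 cm over the soil; then compound (50/50 acetone/water) is pipetted into it at about 0.0313 to 0.500 kg/ha; finally plants are rated visually 0-9 after three to four weeks.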

## C=CCN1C(=O)C(CC(=O)NS(=O)(=O)C(C)C)SC1=Nc1cc(-n2c(=O)cc(C(F)(F)F)n(C)c2=O)c(F)cc1Cl (centres unmarked) [Compound 118, 3-Allyl-2-{{2-chloro-5-[3,6-dihydro-3-methyl-2,6-dioxo-4-(trifluoromethyl)-1(2H)-pyrimidinyl]-4-fluorophenyl}imino}-N-(isopropylsulfonyl)-4-oxo-5-thiazolidineacetamide]
AMBEL (Ragweed, Common); rate 0.0158 kg/ha
  herbicidal rating AMBEL: 0.0
AMBEL (Ragweed, Common); rate 0.0315 kg/ha
  herbicidal rating AMBEL: 2.0
AMBEL (Ragweed, Common); rate 0.0630 kg/ha
  herbicidal rating AMBEL: 2.0
ZEAMX (Corn, Field); rate 0.0158 kg/ha
  herbicidal rating ZEAMX: 3.5
ZEAMX (Corn, Field); rate 0.0315 kg/ha
  herbicidal rating ZEAMX: 4.0
ZEAMX (Corn, Field); rate 0.0630 kg/ha
  herbicidal rating ZEAMX: 4.5
[1]; rate 0.0158 kg/ha
  herbicidal rating IPOHE: 1.0
[1]; rate 0.0315 kg/ha
  herbicidal rating IPOHE: 7.0
[1]; rate 0.0630 kg/ha
  herbicidal rating IPOHE: 9.0
[2]; rate 0.0158 kg/ha
  herbicidal rating GLXMAW: 4.5
[2]; rate 0.0315 kg/ha
  herbicidal rating GLXMAW: 5.0
[2]; rate 0.0630 kg/ha
  herbicidal rating GLXMAW: 6.0
[3]; rate 0.0625 kg/ha
  Preemergence herbicidal rating CHEAL: 6.0
[3]; rate 0.1250 kg/ha
  Preemergence herbicidal rating CHEAL: 9.0
[3]; rate 0.2500 kg/ha
  Preemergence herbicidal rating CHEAL: 9.0
[4]; rate 0.0158 kg/ha
  herbicidal rating CHEAL: 0.0
[4]; rate 0.0315 kg/ha
  herbicidal rating CHEAL: 0.0
[4]; rate 0.0630 kg/ha
  herbicidal rating CHEAL: 5.0
SETVI (Foxtail, Green) [5]; rate 0.0625 kg/ha
  Preemergence herbicidal rating SETVI: 0.0
SETVI (Foxtail, Green) [5]; rate 0.1250 kg/ha
  Preemergence herbicidal rating SETVI: 0.0
SETVI (Foxtail, Green) [5]; rate 0.2500 kg/ha
  Preemergence herbicidal rating SETVI: 2.0
ECHCG (Barnyardgrass); rate 0.0625 kg/ha
  Preemergence herbicidal rating ECHCG: 0.0
ECHCG (Barnyardgrass); rate 0.1250 kg/ha
  Preemergence herbicidal rating ECHCG: 0.0
ECHCG (Barnyardgrass); rate 0.2500 kg/ha
  Preemergence herbicidal rating ECHCG: 0.0
GALAP (Galium) [6]; rate 0.0625 kg/ha
  Preemergence herbicidal rating GALAP: 1.0
GALAP (Galium) [6]; rate 0.1250 kg/ha
  Preemergence herbicidal rating GALAP: 6.0
GALAP (Galium) [6]; rate 0.2500 kg/ha
  Preemergence herbicidal rating GALAP: 7.0
[7]; rate 0.0625 kg/ha
  Preemergence herbicidal rating GLXMAW: 1.0
[7]; rate 0.1250 kg/ha
  Preemergence herbicidal rating GLXMAW: 0.0
[7]; rate 0.2500 kg/ha
  Preemergence herbicidal rating GLXMAW: 3.0
GALAP (Galium) [8]; rate 0.0158 kg/ha
  herbicidal rating GALAP: 0.0
GALAP (Galium) [8]; rate 0.0315 kg/ha
  herbicidal rating GALAP: 0.0
GALAP (Galium) [8]; rate 0.0630 kg/ha
  herbicidal rating GALAP: 1.0
SETVI (Foxtail, Green) [9]; rate 0.0158 kg/ha
  herbicidal rating SETVI: 0.0
SETVI (Foxtail, Green) [9]; rate 0.0315 kg/ha
  herbicidal rating SETVI: 0.0
SETVI (Foxtail, Green) [9]; rate 0.0630 kg/ha
  herbicidal rating SETVI: 4.0
ABUTH (Velvetleaf); rate 0.0158 kg/ha
  herbicidal rating ABUTH: 0.0
ABUTH (Velvetleaf); rate 0.0315 kg/ha
  herbicidal rating ABUTH: 4.0
ABUTH (Velvetleaf); rate 0.0630 kg/ha
  herbicidal rating ABUTH: 9.0
[10]; 0.0313 kg/ha
  herbicidal effect rating, SAGPY: 0.0
[10]; 0.0625 kg/ha
  herbicidal effect rating, SAGPY: 0.0
[10]; 0.1250 kg/ha
  herbicidal effect rating, SAGPY: 3.0
[10]; 0.2500 kg/ha
  herbicidal effect rating, SAGPY: 3.0
CYPSE (Flatsedge); 0.0313 kg/ha
  herbicidal effect rating, CYPSE: 0.0
CYPSE (Flatsedge); 0.0625 kg/ha
  herbicidal effect rating, CYPSE: 0.0
CYPSE (Flatsedge); 0.1250 kg/ha
  herbicidal effect rating, CYPSE: 0.0
CYPSE (Flatsedge); 0.2500 kg/ha
  herbicidal effect rating, CYPSE: 0.0
[11]; rate 0.0625 kg/ha
  Preemergence herbicidal rating IPOHE: 0.0
[11]; rate 0.1250 kg/ha
  Preemergence herbicidal rating IPOHE: 1.0
[11]; rate 0.2500 kg/ha
  Preemergence herbicidal rating IPOHE: 6.0
CYPIR (Rice Flatsedge); 0.0313 kg/ha
  herbicidal effect rating, CYPIR: 0.0
CYPIR (Rice Flatsedge); 0.0625 kg/ha
  herbicidal effect rating, CYPIR: 0.0
CYPIR (Rice Flatsedge); 0.1250 kg/ha
  herbicidal effect rating, CYPIR: 0.0
CYPIR (Rice Flatsedge); 0.2500 kg/ha
  herbicidal effect rating, CYPIR: 0.0

## CC1SC(=Nc2cc(N3C(=O)C4=C(CCCC4)C3=O)c(F)cc2Cl)N(C)C1=O (centres unmarked) [Compound 4]
AMBEL (Ragweed, Common); rate 0.0313 kg/ha
  AMBEL herbicidal rating: 0.0
AMBEL (Ragweed, Common); rate 0.0625 kg/ha
  AMBEL herbicidal rating: 0.0
AMBEL (Ragweed, Common); rate 0.1250 kg/ha
  AMBEL herbicidal rating: 2.0
AMBEL (Ragweed, Common); rate 0.2500 kg/ha
  AMBEL herbicidal rating: 6.0
AMBEL (Ragweed, Common); rate 0.5000 kg/ha
  AMBEL herbicidal rating: 6.0
ZEAMX (Corn, Field); rate 0.0313 kg/ha
  ZEAMX herbicidal rating: 3.0
ZEAMX (Corn, Field); rate 0.0625 kg/ha
  ZEAMX herbicidal rating: 3.5
ZEAMX (Corn, Field); rate 0.1250 kg/ha
  ZEAMX herbicidal rating: 4.0
ZEAMX (Corn, Field); rate 0.2500 kg/ha
  ZEAMX herbicidal rating: 4.0
ZEAMX (Corn, Field); rate 0.5000 kg/ha
  ZEAMX herbicidal rating: 4.0
[3]; rate 0.1250 kg/ha
  CHEAL preemergence herbicidal rating: 0.0
[3]; rate 0.2500 kg/ha
  CHEAL preemergence herbicidal rating: 2.0
[3]; rate 0.5000 kg/ha
  CHEAL preemergence herbicidal rating: 9.0
[4]; rate 0.0313 kg/ha
  CHEAL herbicidal rating: 2.0
[4]; rate 0.0625 kg/ha
  CHEAL herbicidal rating: 6.0
[4]; rate 0.1250 kg/ha
  CHEAL herbicidal rating: 8.0
[4]; rate 0.2500 kg/ha
  CHEAL herbicidal rating: 4.0
[4]; rate 0.5000 kg/ha
  CHEAL herbicidal rating: 4.0
SETVI (Foxtail, Green) [5]; rate 0.1250 kg/ha
  SETVI preemergence herbicidal rating: 2.0
SETVI (Foxtail, Green) [5]; rate 0.2500 kg/ha
  SETVI preemergence herbicidal rating: 4.0
SETVI (Foxtail, Green) [5]; rate 0.5000 kg/ha
  SETVI preemergence herbicidal rating: 9.0
ECHCG (Barnyardgrass); rate 0.1250 kg/ha
  ECHCG preemergence herbicidal rating: 0.0
ECHCG (Barnyardgrass); rate 0.2500 kg/ha
  ECHCG preemergence herbicidal rating: 2.0
ECHCG (Barnyardgrass); rate 0.5000 kg/ha
  ECHCG preemergence herbicidal rating: 6.0
GALAP (Galium) [8]; rate 0.0313 kg/ha
  GALAP herbicidal rating: 0.0
GALAP (Galium) [8]; rate 0.0625 kg/ha
  GALAP herbicidal rating: 2.0
GALAP (Galium) [8]; rate 0.1250 kg/ha
  GALAP herbicidal rating: 2.0
GALAP (Galium) [8]; rate 0.5000 kg/ha
  GALAP herbicidal rating: 6.0
SETVI (Foxtail, Green) [9]; rate 0.0313 kg/ha
  SETVI herbicidal rating: 0.0
SETVI (Foxtail, Green) [9]; rate 0.0625 kg/ha
  SETVI herbicidal rating: 2.0
SETVI (Foxtail, Green) [9]; rate 0.1250 kg/ha
  SETVI herbicidal rating: 0.0
SETVI (Foxtail, Green) [9]; rate 0.2500 kg/ha
  SETVI herbicidal rating: 2.0
SETVI (Foxtail, Green) [9]; rate 0.5000 kg/ha
  SETVI herbicidal rating: 8.0
ABUTH (Velvetleaf); rate 0.0313 kg/ha
  ABUTH herbicidal rating: 2.0
ABUTH (Velvetleaf); rate 0.0625 kg/ha
  ABUTH herbicidal rating: 4.0
ABUTH (Velvetleaf); rate 0.1250 kg/ha
  ABUTH herbicidal rating: 9.0
ABUTH (Velvetleaf); rate 0.2500 kg/ha
  ABUTH herbicidal rating: 9.0
ABUTH (Velvetleaf); rate 0.5000 kg/ha
  ABUTH herbicidal rating: 9.0
[10]; 0.0313 kg/ha
  Herbicidal rating SAGPY: 0.0
[10]; 0.0625 kg/ha
  Herbicidal rating SAGPY: 0.0
[10]; 0.1250 kg/ha
  Herbicidal rating SAGPY: 0.0
[10]; 0.2500 kg/ha
  Herbicidal rating SAGPY: 0.0
[10]; 0.5000 kg/ha
  Herbicidal rating SAGPY: 0.0
CYPSE (Flatsedge); 0.0313 kg/ha
  Herbicidal rating CYPSE: 0.0
CYPSE (Flatsedge); 0.0625 kg/ha
  Herbicidal rating CYPSE: 0.0
CYPSE (Flatsedge); 0.1250 kg/ha
  Herbicidal rating CYPSE: 0.0
CYPSE (Flatsedge); 0.2500 kg/ha
  Herbicidal rating CYPSE: 0.0
CYPSE (Flatsedge); 0.5000 kg/ha
  Herbicidal rating CYPSE: 0.0
CYPIR (Rice Flatsedge); 0.0313 kg/ha
  Herbicidal rating CYPIR: 0.0
CYPIR (Rice Flatsedge); 0.0625 kg/ha
  Herbicidal rating CYPIR: 4.0
CYPIR (Rice Flatsedge); 0.1250 kg/ha
  Herbicidal rating CYPIR: 8.0
CYPIR (Rice Flatsedge); 0.2500 kg/ha
  Herbicidal rating CYPIR: 9.0
CYPIR (Rice Flatsedge); 0.5000 kg/ha
  Herbicidal rating CYPIR: 9.0
